From patent publication US7585826B2, “Compositions counteracting pesticides and malodorants” (priority 2007, dated 2009)

Tests used:
[1] = Time-course decomposition of pesticides reacted with the composition prepared in Example 1 (HPLC); assay type: physicochemical; conditions: 7.5 mL of 10 ppm pesticide + 2.5 mL composition of Example 1; after 5.0 min reaction time
Experimental: 7.5 mL of a pesticide solution, containing 10 ppm Terbufos, Diazinon, Hexaconazole, or Fenobucard, was allowed to react with 2.5 mL of the composition prepared in Example 1 for 1.0 min, 3.0 min, and 5.0 min, respectively. HPLC was used to determine the concentrations of the pesticide.

[2] = Decomposition rate of 17 pesticides mixed with the composition prepared in Example 1 (HPLC), against tap water or 10% brine controls; assay type: physicochemical; conditions: 10 ppm pesticide, composition of Example 1, 5 min; among seventeen pesticides
Experimental: The above-prepared composition was tested to decompose 17 pesticides, i.e., Diazinon, Terbufos, Acephate, Glyphosate, Phosmet, Mevinphos, Benomyl, Metalaxyl, Pyrnetrozine, Methomyl, Fenobucard, Carbendazim, Pencycuron, Hexaconazole, Thiophanate-methyl, Cartap, and Thiabendazole. The decomposition rates were measured as follows:
Each pesticide was dissolved in tap water at a concentration of 10 ppm. 10 mL pesticide solution was mixed with 10 mL of the composition prepared in Example 1 for 5 min. 10 mL pesticide solution was also mixed with 10 mL tap water or 10 mL 10% brine solution to prepare control solution. The pesticide concentration of each tested reaction solution was measured by high performance liquid chromatography.

## CCC(C)c1ccccc1OC(=O)NC (stereo not shown) [Fenobucard]
[1]
  pesticide decomposed: 76%

## COP(=O)(NC(C)=O)SC (stereo not shown) [Acephate]
[2]
  decomposition rate compared with the other pesticides tested: higher rates than the others

## CCCCC(O)(Cn1cncn1)c1ccc(Cl)cc1Cl (stereo not shown) [Hexaconazole]
[2]
  decomposition rate compared with the other pesticides tested: higher rates than the others
[1]
  pesticide decomposed: 85%

## CCOP(=S)(OCC)SCSC(C)(C)C [Terbufos]
[2]
  decomposition rate compared with the other pesticides tested: higher rates than the others
[1]
  pesticide decomposed: 91%

## CCOP(=S)(OCC)Oc1cc(C)nc(C(C)C)n1 [Diazinon]
[1]
  pesticide decomposed: 87%
